The values below come from US10711000B2 (Fronthera U.S. Pharmaceuticals LLC, priority 2018, dated 2020).

Read-outs that look alike come from different tables or passages of the source. A value given as a limit tells only on which side of the number the result lay.

Broadly, the IC50 is the point on the concentration scale where inhibition reaches its midpoint.

This test concerns the target T1, Autotaxin (Homo sapiens, UniProt Q13822).
T1 construct: from tissue; host or cells: pooled human plasma
Briefly: LPA formation in pooled human plasma (ex vivo autotaxin inhibition). The class given is biochemical. The settings on record: 2 hours incubation. As for the experimental part:
Autotaxin is a plasma phosphodiesterase that converts lysophosphatidylcholine (LPC) into lysophosphatidic acid (LPA), therefore LPA formation was used to evaluate the potency of autotaxin inhibitors. The potency of compound was evaluated ex vivo in pooled human plasma.
Various concentrations of compound were incubated with plasma for 2 hours, and the LPA 18:2 and 20:4 concentration was measured by LC/MS/MS. To determine the LPA18:2 or 20:4 concentration in study plasma, a 10× calibration standard of LPA 18:2 or 20:4 were prepared by serial dilution in butyl alcohol: 20000, 10000, 5000, 2000, 1000, 500, 200, 100, 50, 20, and 10 ng/mL. 3 μL of calibration standard solution was added into 27.0 μL of blank plasma in 1.5-mL microcentrifuge tubes to generate 1× calibration standards. The 30.0 μL of standards or study plasma was added into 1.5-mL microcentrifuge tubes. 200 μL of butyl alcohol (containing 25.0 ng/mL LPA17:0 for internal control) was added into each 1.5-mL microcentrifuge tube containing study plasma or calibration standards. After vortexing for 1 minute and centrifuging at 10000 rpm for 10 min, 180 μL of supernatant was transferred into a 96-well plate and the LPA18:2 concentration in the plasma was quantitated using LC/MS/MS together with standards. Briefly, 8 μL of the solutions were injected for LC-MS/MS analysis using an ACQUITY UPLC BEH C18 column (2.1×50 mm, 1.7 μm) with mobile phase A [20 mM NH4OAC in water (0.1% FA)] and phase B [5 mM NH4OAC in water/0.2% FA in ACN=5:95]. Mass spectrometer parameters optimization for LPA18:2 were performed by Deprotonated molecular ion at m/z 433.2 ([M−H]^−) for LPA18:2, 457.2 for LPA20:4 and abundant product ion at m/z 152.8 for both LPA18:2 and LPA20:4 were obtained. Quantitative data were acquired in multiple reaction monitoring (MRM) negative electrospray ionization mode
The inhibition rate of LPA formation was determined by comparing the levels of LPA in treated and non-treated plasma. The data was plotted against the corresponding concentration of compound and the IC50 was calculated through non-linear regression fitting.

The mark [1] stands for this setting: LPA 18:2 by LC/MS/MS, read-out: LPA formation (18:2) (IC50).
Where [2] appears, read: LPA 20:4 by LC/MS/MS, read-out: LPA formation (20:4) (IC50).

Take `CCc1nn2ccc(N3CC4(CN(C(=O)N5CC(O)C5)C4)C3)cc2c1N(C)c1nc(-c2ccc(F)cc2)c(C#N)s1` [Example 11, 2-((2-ethyl-5-(6-(3-hydroxyazetidine-1-carbonyl)-2,6-diazaspiro[3.3]heptan-2-yl)pyrazolo[1,5-a]pyridin-3-yl)(methyl)amino)-4-(4-fluorophenyl)thiazole-5-carbonitrile]: the IC50 is no more than 100 nM under setting [1] and no more than 100 nM under setting [2].
Take `CCc1nn2ccc(N3CCC4(CC3)CN(C(=O)N3CC(O)C3)C4)cc2c1N(C)c1nc(-c2ccc(F)cc2)c(C#N)s1` [Example 12, 2-((2-ethyl-5-(2-(3-hydroxyazetidine-1-carbonyl)-2,7-diazaspiro[3.5]nonan-7-yl)pyrazolo[1,5-a]pyridin-3-yl)(methyl)amino)-4-(4-fluorophenyl)thiazole-5-carbonitrile]: the IC50 by setting is: under setting [1], no more than 100 nM; under setting [2], no more than 100 nM.
Regarding `CCc1nn2ccc(N3CC4(CN(C(=O)N5CCN(C)CC5)C4)C3)cc2c1N(C)c1nc(-c2ccc(F)cc2)c(C#N)s1` [Example 14, 2-((2-ethyl-5-(6-(4-methylpiperazine-1-carbonyl)-2,6-diazaspiro[3.3]heptan-2-yl)pyrazolo[1,5-a]pyridin-3-yl)(methyl)amino)-4-(4-fluorophenyl)thiazole-5-carbonitrile], the IC50 is, setting by setting: under setting [1], no more than 100 nM; under setting [2], no more than 100 nM.
In the case of `CCc1nn2ccc(N3CC4(CCN(C(=O)N5CC(O)C5)C4)C3)cc2c1N(C)c1nc(-c2ccc(F)cc2)c(C#N)s1` [Example 15, 2-((2-ethyl-5-(6-(3-hydroxyazetidine-1-carbonyl)-2,6-diazaspiro[3.4]octan-2-yl)pyrazolo[1,5-a]pyridin-3-yl)(methyl)amino)-4-(4-fluorophenyl)thiazole-5-carbonitrile], the IC50 was no more than 100 nM under setting [1] and no more than 100 nM under setting [2].
In the case of `CCc1nn2ccc(N3CCC4(CN(C(=O)N5CC(O)C5)C4)C3)cc2c1N(C)c1nc(-c2ccc(F)cc2)c(C#N)s1` [Example 16, 2-((2-ethyl-5-(2-(3-hydroxyazetidine-1-carbonyl)-2,6-diazaspiro[3.4]octan-6-yl)pyrazolo[1,5-a]pyridin-3-yl)(methyl)amino)-4-(4-fluorophenyl)thiazole-5-carbonitrile], the 50% inhibitory concentration (IC50) by setting is: under setting [1], no more than 100 nM; under setting [2], no more than 100 nM.
Regarding `CCc1nn2ccc(N3CCC4(CCN(C(=O)N5CC(O)C5)CC4)C3)cc2c1N(C)c1nc(-c2ccc(F)cc2)c(C#N)s1` [Example 17, 2-((2-ethyl-5-(8-(3-hydroxyazetidine-1-carbonyl)-2,8-diazaspiro[4.5]decan-2-yl)pyrazolo[1,5-a]pyridin-3-yl)(methyl)amino)-4-(4-fluorophenyl)thiazole-5-carbonitrile], the IC50 runs as follows: under setting [1], no more than 100 nM; under setting [2], no more than 100 nM.
Consider `CCc1nn2ccc(N3CCC4(CCN(C(=O)N5CC(O)C5)C4)CC3)cc2c1N(C)c1nc(-c2ccc(F)cc2)c(C#N)s1` [Example 18, 2-((2-ethyl-5-(2-(3-hydroxyazetidine-1-carbonyl)-2,8-diazaspiro[4.5]decan-8-yl)pyrazolo[1,5-a]pyridin-3-yl)(methyl)amino)-4-(4-fluorophenyl)thiazole-5-carbonitrile], for which the IC50 is no more than 100 nM under setting [1] and no more than 100 nM under setting [2].
In the case of `[2H]c1cc(N2CCN(CC(=O)N3CC(O)C3)CC2)cc2c(N(C)c3nc(-c4ccc(F)cc4)c(C#N)s3)c(CC)nn12` [Example 19, 2-((2-ethyl-5-(4-(2-(3-hydroxyazetidin-1-yl)-2-oxoethyl)piperazin-1-yl)pyrazolo[1,5-a]pyridin-3-yl-7-d)(methyl)amino)-4-(4-fluorophenyl)thiazole-5-carbonitrile], the IC50 is no more than 100 nM under setting [1] and no more than 100 nM under setting [2].
With `CCc1nn2ccc(N3CCC4(CCN(C(=O)N5CC(O)C5)C4)C3)cc2c1N(C)c1nc(-c2ccc(F)cc2)c(C#N)s1` (centres unmarked) [Example 20, 2-((2-ethyl-5-(7-(3-hydroxyazetidine-1-carbonyl)-2,7-diazaspiro[4.4]nonan-2-yl)pyrazolo[1,5-a]pyridin-3-yl)(methyl)amino)-4-(4-fluorophenyl)thiazole-5-carbonitrile], the IC50 under setting [1] is no more than 100 nM and the IC50 under setting [2] is no more than 100 nM.
As to `CN(c1nc(-c2ccc(F)cc2)c(C#N)s1)c1c(C2CC2)nn2ccc(N3CCN(CC(=O)N4CC(O)C4)CC3)cc12` [Example 21, 2-((2-cyclopropyl-5-(4-(2-(3-hydroxyazetidin-1-yl)-2-oxoethyl)piperazin-1-yl)pyrazolo[1,5-a]pyridin-3-yl)(methyl)amino)-4-(4-fluorophenyl)thiazole-5-carbonitrile], the IC50 was no more than 100 nM under setting [1] and no more than 100 nM under setting [2].
In the case of `CN(c1nc(-c2ccc(F)cc2)c(C#N)s1)c1c(C2CC2)nn2ccc(N3CC4(CN(C(=O)[C@H]5CCOC5)C4)C3)cc12` [Example 22, (S)-2-((2-cyclopropyl-5-(6-(tetrahydrofuran-3-carbonyl)-2,6-diazaspiro[3.3]heptan-2-yl)pyrazolo[1,5-a]pyridin-3-yl)(methyl)amino)-4-(4-fluorophenyl)thiazole-5-carbonitrile], the IC50 is no more than 100 nM under setting [1] and no more than 100 nM under setting [2].
Take `CCc1nn2c(C)cc(N3CCN(CC(=O)N4CC(O)C4)CC3)cc2c1N(C)c1nc(-c2ccc(F)cc2)c(C#N)s1` [Example 23, 2-((2-ethyl-5-(4-(2-(3-hydroxyazetidin-1-yl)-2-oxoethyl)piperazin-1-yl)-7-methylpyrazolo[1,5-a]pyridin-3-yl)(methyl)amino)-4-(4-fluorophenyl)thiazole-5-carbonitrile]: the half-maximal inhibitory concentration (IC50) is 100 to 500 nM under setting [1] and 100 to 500 nM under setting [2].
On to `CCc1nn2c(C)cc(N3CCN(CC(=O)N(C)C)CC3)cc2c1N(C)c1nc(-c2ccc(F)cc2)c(C#N)s1` [Example 24, 2-(4-(3-((5-cyano-4-(4-fluorophenyl)thiazol-2-yl)(methyl)amino)-2-ethyl-7-methylpyrazolo[1,5-a]pyridin-5-yl)piperazin-1-yl)-N,N-dimethylacetamide], for which the concentration for half-maximal inhibition (IC50) was 100 to 500 nM under setting [1] and no more than 100 nM under setting [2].
Take `CCc1nn2c(C)cc(N3CCN(CC(=O)N4CC[C@@H](O)C4)CC3)cc2c1N(C)c1nc(-c2ccc(F)cc2)c(C#N)s1` [Example 25, (R)-2-((2-ethyl-5-(4-(2-(3-hydroxypyrrolidin-1-yl)-2-oxoethyl)piperazin-1-yl)-7-methylpyrazolo[1,5-a]pyridin-3-yl)(methyl)pamino)-4-(4-fluorophenyl)thiazole-5-carbonitrile]: the IC50 runs as follows: under setting [1], no more than 100 nM; under setting [2], no more than 100 nM.
In the case of `CCc1nn2c(C)cc(N3CCN(CC(=O)N4CC[C@H](O)C4)CC3)cc2c1N(C)c1nc(-c2ccc(F)cc2)c(C#N)s1` [Example 26, (S)-2-((2-ethyl-5-(4-(2-(3-hydroxypyrrolidin-1-yl)-2-oxoethyl)piperazin-1-yl)-7-methylpyrazolo[1,5-a]pyridin-3-yl)(methyl)amino)-4-(4-fluorophenyl)thiazole-5-carbonitrile], the IC50 is, setting by setting: under setting [1], 100 to 500 nM; under setting [2], 100 to 500 nM.
As to `CCc1nn2c(C)cc(N3CCN(CC(=O)N4CC(CO)C4)CC3)cc2c1N(C)c1nc(-c2ccc(F)cc2)c(C#N)s1` [Example 27, 2-((2-ethyl-5-(4-(2-(3-(hydroxymethyl)azetidin-1-yl)-2-oxoethyl)piperazin-1-yl)-7-methylpyrazolo[1,5-a]pyridin-3-yl)(methyl)amino)-4-(4-fluorophenyl)thiazole-5-carbonitrile], the IC50 by setting is: under setting [1], no more than 100 nM; under setting [2], no more than 100 nM.
